Measurements published in patent US9926298B2, “Heterocyclic compounds and use thereof” (National Health Research Institutes, priority 2014, dated 2018).

Experiments:
Ischemic Stroke in Rats = assay: Ischemic stroke in rats (MCAo); assay type: in vivo, male Sprague-Dawley rats; conditions: 1 mg/kg/d i.p. for 5 days; for horizontal movement number compared with vehicle-treated animals / vertical movement number: day 2 after MCAo; for volume of infarction as compared to vehicle (TTC staining): day 5 after MCAo
Protocol: Adult male Sprague-Dawley rats (250-300 g) were anesthetized with chloral hydrate (400 mg/kg i.p.). The right middle cerebral artery was occluded (MCAo) and bilateral common carotids (CCAs) were clamped for 60 minutes to generate focal ischemia in the right cerebral cortex. Core body temperature was maintained at 37° C.
Compounds 62 and 63 and a vehicle were administered to the rats at a dose of 1 mg/kg/d (i.p.) for 5 consecutive days. The first dose was given at 90 minutes after MCAo. Each animal was placed in a 42×42×31 cm activity monitor for 1 h on day 2 after MCAo. The monitor contained 16 horizontal and 8 vertical infrared sensors spaced 2.5 cm apart. Locomotor activity was calculated using the number of infrared beams broken by the animals.
TTC staining was performed on day 5 after MCAo to determine infarction size as described previously in Brain Research, volume 1116, issue 1, 2006, pages 159-165. Briefly, rats were decapitated and the brains were removed and sliced into 2.0-mm-thick sections. The brain slices were incubated in a 2% TTC solution (Sigma-Aldrich) for 15 minutes at room temperature and then transferred into a 4% paraformaldehyde solution for fixation. The area of infarction in each slice was measured with a digital scanner and Imagetools programs (University of Texas Health Sciences Center). The volume of infarction in each animal was obtained from the product of average slice thickness (2 mm) and sum of infarction areas in all brain slices examined.

Limb Ischemia in Mice = assay: Limb ischemia in mice; assay type: in vivo, ICR mice; conditions: 6 mg/kg/d subcutaneous, twice a week, laser Doppler perfusion, seven weeks
Protocol: Unilateral hindlimb ischemia was induced in ICR mice by ligating and excising the right femoral artery. Briefly, animals were anesthetized by an intraperitoneal injection of Xylocaine (2 mg/kg of body weight) plus Zoletil (i.e., the dissociative anesthetic Tiletamine/Zolazepam at a ratio of 1:1; 5 mg/kg of body weight). The proximal and distal portions of the femoral artery were ligated with a silk thread, and a 0.2 centimeter section of the blood vessel was removed. Hindlimb blood perfusion was measured with a laser Doppler perfusion imager system (Moor Instruments Limited, Devon, UK) before and after the surgery and was then followed on a weekly basis. Animals were subcutaneously treated with compound 4 (6 mg/kg/d, twice a week) in saline after surgery. The animals were sacrificed by cervical dislocation without sedation at the end of the seven experimental weeks. To avoid the influence of ambient light and temperature, the results are expressed as the ratio of perfusion in the right (ischemic) versus left (non-ischemic) limb.

SMILES | horizontal movement number compared with vehicle-treated animals (Ischemic Stroke in Rats) | vertical movement number (Ischemic Stroke in Rats) | volume of infarction as compared to vehicle (TTC staining) (Ischemic Stroke in Rats) | improvement of blood flow in the ischemic hindlimb as compared with the vehicle control (Limb Ischemia in Mice)
N[C@@H](CCC(=O)N1CCC(Nc2nc(NCc3cn(CCCNCCCNC4CCCCC4)nn3)nc3ccccc23)CC1)C(=O)OCc1ccccc1 [Compound 62] | significant increase | significantly increased | significantly reduced | 
N[C@@H](CCC(=O)N1CCC(Nc2nc(NCc3cn(CCCNCCCNC4CCCCC4)nn3)nc3ccccc23)CC1)C(=O)O [Compound 63] | significant increase | significantly increased | significantly reduced | 
c1ccc2c(NC3CCNCC3)nc(NCc3cn(CCCNCCCNC4CCCCC4)nn3)nc2c1 [Compound 4] |  |  |  | 20-25%
